Molecular target: dihydroorotate dehydrogenase (DHODH) (Homo sapiens, UniProt Q02127)
Assay: recombinant DHODH enzyme assay
Format: biochemical

Chain of dihydroorotate dehydrogenase (DHODH) (Q02127 whole entry): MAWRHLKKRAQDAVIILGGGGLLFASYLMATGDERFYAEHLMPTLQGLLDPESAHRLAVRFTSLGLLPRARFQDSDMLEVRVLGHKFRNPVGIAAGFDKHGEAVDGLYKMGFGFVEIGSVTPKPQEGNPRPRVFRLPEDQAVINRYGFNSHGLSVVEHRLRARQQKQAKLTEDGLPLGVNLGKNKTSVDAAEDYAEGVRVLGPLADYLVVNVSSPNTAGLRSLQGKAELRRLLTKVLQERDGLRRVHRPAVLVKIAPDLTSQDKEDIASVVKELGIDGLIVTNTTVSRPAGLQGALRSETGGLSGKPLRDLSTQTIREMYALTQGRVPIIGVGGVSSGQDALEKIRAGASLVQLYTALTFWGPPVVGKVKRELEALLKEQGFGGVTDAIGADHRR

## C/C(O)=C(\C#N)C(=O)Nc1ccc(C(F)(F)F)cc1 [teriflunomide]
  recombinant DHODH enzyme assay; isolated mitochondria assay: inhibited the activity of recombinant DHODH using in vitro enzyme assays, though not as potently as do brequinar or teriflunomide

Reference: article PMC6318026 (Molecular cancer therapeutics, 2018)
